As a reminder, the TGI is the concentration giving total growth inhibition. High values mean less potent growth arrest, low ones more potent growth arrest. A word on the GI50: it is the concentration at which growth is held to half of that of the control.

Structures are written as SMILES.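 How tested: cells in 96-well plates exposed to compound for 48 hours at five concentrations. GI50 is the concentration that inhibits growth by half. At the TGI there is no net growth.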 Bounds are passed on as bounds.

These results are taken from PubChem BioAssay (NCI).

Common to all, as to assay: DTP human tumour cell line panel, 48 h
Assay [1] concerns XF 498 CNS.
For assay [2], the system named is RXF-631 renal.
Assay [3] deals with LXFL 529 NSCLC.
The test system of assay [4] is DLD-1 colon.
Assay [5] relates to DMS 273 small cell lung.
Assay [6] deals with MDA-N.
The test system of assay [7] is SNB-78 CNS.
For assay [8], the system named is HOP-18 NSCLC.
Assay [9] concerns M19-MEL melanoma.

Turning to `COc1ccc(Nc2nc3ccc(C(F)(F)F)cc3nc2-c2ccccc2)cc1OC`, the TGI is 85 µM in [1]; above 100 µM in assay [2]; above 100 µM in assay [3]; above 100 µM in [4]; above 100 µM in assay [5].

On to `Nc1ccccc1C(=O)CC1OC(=O)c2ccccc21` (stereo not drawn), for which the concentration for total growth inhibition (TGI) in assay [6] was above 100 µM.

As to `COc1ccc(OC)c(/C(C)=N/NC(N)=S)c1`, the TGI in assay [7], in assay [1], in assay [3], in assay [4], in assay [8] and in [5] was above 100 µM in each case. In [9], this molecule came in with a total growth inhibition concentration (TGI) above 100 µM.

`COc1ccc2c(c1)N1CCc3cc(OC)c(OC)cc3C1C2` (stereo not drawn): the TGI in assay [7], in assay [1], in assay [3], in assay [4], in assay [8] and in [5] was above 100 µM in each case. In assay [9], this molecule gave a TGI above 100 µM.

In assay [6], `FC(F)(F)c1nc2nc(Cl)c(Cl)nc2n1CCCN1CCOCC1` showed a concentration for total growth inhibition (TGI) above 100 µM.

As to `Cc1cc2c(ccc3c(C)cc(=O)oc32)o1`, the TGI in assay [7], in [1], in [2], in assay [3], in assay [4] and in assay [8] was above 100 µM throughout. In addition, the TGI in assay [5] and in [9] was above 100 µM throughout.

As for `CN(C)CC(C)(C)C(=O)/C=C/c1ccc(/C=C/C(=O)C(C)(C)CN(C)C)cc1`, the TGI in assay [1] amounted to 2.55 µM; in assay [2] it was 4.14 µM; in [3], 2.4 µM; in assay [4], 1.01 µM; in assay [5], 2.38 µM; in [9], 3.14 µM.

In assay [6], `CC(=O)OCC1OC(n2c(-c3ccc(Cl)cc3)ccc(C#N)c2=S)C(OC(C)=O)C(OC(C)=O)C1OC(C)=O` (stereo not drawn) yielded a total growth inhibition concentration (TGI) above 100 µM.

With `COCCCNC(=O)C1C(=O)N(CCCOC)C(=O)/C1=N\N` (stereo not drawn), the concentration for total growth inhibition (TGI) in assay [7], in assay [2], in assay [3], in assay [4], in assay [8] and in assay [5] was above 100 µM in each case. In [9], this molecule came in with a TGI above 100 µM.

In the case of `C[N-]c1nnnn1C.[Au+].c1ccc([PH+](c2ccccc2)c2ccccc2)cc1`, the GI50 in [7] is 5.28 µM; in [3], 1.37 µM; in [4], 2.05 µM; in assay [8], 2.35 µM; in assay [9], 2.9 µM. Further, the TGI in [7] is above 69.1 µM; in assay [3], 2.83 µM; in assay [4], 5.02 µM; in assay [8], 5.96 µM; in [9], 14.9 µM.

As to `Cc1ccc(S(=O)(=O)NC(=O)C2C(=O)CC3(CCCCC3)CC2=O)cc1`, in assay [6], the total growth inhibition concentration (TGI) was above 100 µM.

As for `[Cl-].[O-]/N=C(\c1ccccc1)c1ccccn1.[O-]/N=C(\c1ccccc1)c1ccccn1.[O-]/N=C(\c1ccccc1)c1ccccn1.[Sm+3]`, the GI50 in [3] is 41.4 µM; in assay [4], 33 µM; in assay [5] it was 28.7 µM; in assay [9], 21.2 µM. For the same molecule, the total growth inhibition concentration (TGI) was above 100 µM in assay [3], above 100 µM in [4], 95.1 µM in assay [5] and 45.7 µM in [9].

In assay [6], `CC(C)=CCc1c(OC(=O)c2c(C)cc(O)cc2O)cc(CO)c(CO)c1O` showed a total growth inhibition concentration (TGI) of 34.8 µM.

In turn, `CCCC(=O)NC1=C(Cl)C(=O)c2ccccc2C1=O` gave a total growth inhibition concentration (TGI) in [6] of 14.6 µM.

In assay [6], `Cc1cc(=O)oc2cc(OC(=O)N(C)C)c(Cl)cc12` yielded a total growth inhibition concentration (TGI) above 100 µM.

For the molecule `C=C1C(=O)O[C@@H]2C[C@@H](C)[C@@H]3C=CC(=O)[C@@]3(C)[C@@H](OC(=O)CC(=O)O[C@H]3[C@@H]4C(=C)C(=O)O[C@@H]4C[C@@H](C)[C@@H]4C=CC(=O)[C@]43C)[C@H]12`, the total growth inhibition concentration (TGI) in [7] was 0.101 µM; in assay [1], 0.05 µM; in [2] it was 0.455 µM; in assay [6], 10.2 µM; in assay [3], 0.0343 µM; in assay [4], below 0.0215 µM. Besides, the concentration for total growth inhibition (TGI) came out at 0.365 µM in assay [8], 0.122 µM in [5] and 0.0376 µM in assay [9].

As for `COc1ccc(-c2cc(=O)c3ccc(C)nc3[nH]2)cc1`, in assay [6], the GI50 was 55.2 µM and the concentration for total growth inhibition (TGI) is above 100 µM.

Molecule `CC(=O)O[C@H]1CC[C@@]2(C)C(=CC[C@H]3[C@@H]4CC[C@H](c5cc(C(F)(F)F)n(C(C)=O)n5)[C@@]4(C)CC[C@@H]32)C1` returned a total growth inhibition concentration (TGI) in assay [6] of 23.6 µM.

Consider `Cc1[nH]c2ccccc2c1C(=O)CC1(O)C(=O)Nc2ccccc21` (stereo not drawn), for which the total growth inhibition concentration (TGI) in [7], in assay [2], in assay [3], in assay [4], in [5] and in assay [9] was above 100 µM throughout.

`Cc1ccc(SC(CCC(Sc2ccc(C)cc2)Sc2ccc(C)cc2)Sc2ccc(C)cc2)cc1`: the total growth inhibition concentration (TGI) in [7], in assay [1], in assay [2], in assay [4], in assay [5] and in assay [9] was above 100 µM each time.

For the molecule `O=C(CC(c1ccccc1)c1c(O)c2ccccc2oc1=O)c1ccccc1` (stereo not drawn), the total growth inhibition concentration (TGI) in assay [6] was above 100 µM.

In the case of `C=C(COC(C)=O)CC(OC(C)=O)c1ccccc1` (stereo not drawn), the total growth inhibition concentration (TGI) in [7], in [1], in assay [3], in assay [4], in assay [5] and in assay [9] was above 100 µM throughout.

In the case of `CC(C)CC(NC(=O)c1cccc(O)c1O)C(=O)NCc1cc(CNC(=O)C(CC(C)C)NC(=O)c2cccc(O)c2O)cc(CNC(=O)C(CC(C)C)NC(=O)c2cccc(O)c2O)c1` (stereo not drawn), the TGI is above 100 µM in assay [7]; 13.8 µM in assay [3]; above 100 µM in assay [4]; above 100 µM in assay [8]; 41.9 µM in assay [5].

`CC(C)CCC(=O)c1ccoc1`: in [6], the TGI is above 100 µM.

As for `C=C(C)C(=O)O[C@H]1C[C@@]23O[C@@H]2CCC(=C[C@H]2OC(=O)C(=C)[C@H]12)COC3O` (stereo partly drawn), in assay [6], the TGI was above 100 µM.
